Reference: patent US11612606B2, “8-aminoisoquinoline compounds and uses thereof” (priority 2018, dated 2023)
Where a name gives a salt, the structure may show the parent alone. Read-outs that look alike come from different tables or passages of the source.

Legend:
[1] = molecular target: HPK full length, T165E S171E (Homo sapiens (Human), UniProt Q92918, S171E/T165E); assay: HPK1-FL HTRF enzymatic assay ("HTRF"); type: biochemical; conditions: ATP 1 mM, read-out: HPK1 Ki
In short: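 Full-length HPK1 (T165E/S171E) was preincubated 30 min with compound, then reacted 60 min with biotin-SLP-76 and 1 mM ATP. Phospho-SLP-76 was detected by HTRF (Eu-anti-pSLP76 antibody, SA-XL665) after a further 60 min.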

[2] = tested on: primary human pan T cells; assay: Human T-cell IL2 induction assay; type: cell-based
Protocol: Assay Principle: Anti-CD3 and anti-CD28 activates TCR signaling in primary human pan T cells leading to IL-2 promoter induction. Secreted IL-2 in cell culture supernatant is detected by electrochemiluminescence using a capture antibody against IL-2 and an anti-IL-2 antibody labeled with SULFO-tag. Also see www.mesoscale.com for additional electrochemiluminescence technology information.
Assay Procedure: Incubate primary human pan T cells with varying concentrations of test compounds for 30 minutes in a humidified incubator at 37° C. and 5% CO2. Transfer cells to a plate pre-coated with a fixed concentration of anti-human CD3 (determined separately for each donor lot) and add soluble anti-human CD28 (final concentration=1 μg/ml). Stimulate cells in a humidified incubator at 37° C. and 5% CO2 for 4 hours. Transfer 25 μl of supernatant to a MSD single spot plate pre-coated with an anti-human IL-2 antibody. Incubate MSD plate overnight at 4° C. with gentle shaking. Wash MSD plate 4× with wash buffer. Add SULFO-tagged detection antibody at a 1:50 dilution and incubate at room temperature shaking for 2 hours. Wash MSD plate 4× with wash buffer and add 150 μl 2×MSD read buffer. Read on an MSD instrument. Normalize data to stimulated/untreated controls to calculate % activity at each concentration of compound.
Instrumentation: • Biomek FX for liquid handling (Beckman Coulter) • MSD SECTOR S 600 (Meso Scale Discovery)
Exemplary compounds of Formula (I) were tested in the human T-cell IL-2 induction assays.

[3] = Hepatocyte stability assay; type: in vitro ADME; conditions: cryopreserved human hepatocytes (10 donor pool, suspension), scaled hepatic clearance, read-out: HHep Clearance
Protocol: Metabolic stability of compounds are assessed using a hepatocyte stability assay. Cryopreserved human hepatocytes from a 10 donor pool are quickly thawed at 37° C., suspended in prewarmed In VitroGRO™ HT Medium, and then centrifuged at 100×g at room temperature for 10 min. The supernatants are discarded, and cells are resuspended in 5 mL Dulbecco's Modified Eagle Medium (DMEM) medium. Cell viability in suspension is counted on a Hepatometer® Vision (Lonza, N.C.), and viable cells are then adjusted to […] in DMEM. Compounds are first diluted to 2 μM with DMEM medium, and then aliquots of 125 μL of drug-containing medium are transferred to 96-well non-coated plates. Incubation is initiated by the addition of 125 μL of hepatocyte suspension to yield a total incubation volume of 250 μL. Final concentration of each compound is 1 μM, and final cell density is 0.5×10^6 cells/mL. Incubations are conducted in a humidified incubator at 37° C. Aliquots of 50 μL incubation medium are taken out at different time intervals (0, 60, 120 and 180 min), and immediately mixed with 100 μL of ice-cold acetonitrile containing 50 nM propranolol (internal standard). Samples are then centrifuged at 10,000×g for 10 min, and 80 μL of supernatant is taken out and diluted with 160 μL of water prior to LC/MS-MS analysis.
Human hepatocyte stability was assessed for exemplary compounds of Formula (I) according to the above procedures.

[4] = tested on: phosphorylation of SLP-76 (S376) by HPK-1 in human Jurkat cells; assay: pSLP76 assay (sandwich ELISA, anti-CD3 stimulated Jurkat cells); type: cell-based; conditions: Homo sapiens; Jurkat cells, anti-CD3 stimulation; read-out: pSLP76 IC50
Protocol: Phospho-SLP76 (S376) is detected by sandwich ELISA using an anti-pSLP76(S376) capture antibody and a biotinylated anti-SLP76 detection antibody.
Incubate Jurkat cells with varying concentrations of test compounds for 30 minutes in a humidified incubator at 37° C. and 5% CO2. Add anti-CD3 DynaBeads at a 4:1 bead:cell ratio. Stimulate cells in a humidified incubator at 37° C. and 5% CO2 for 10 minutes. Add cold lysis buffer and incubate on a shaker at 4° C. for 30 minutes. Transfer cell lysates to a pre-blocked ELISA plate coated with capture antibody. Incubate at room temperature shaking for 2 hours. Wash ELISA plate 5× with wash buffer and add 25 μl of biotinylated detection antibody at a final concentration of 0.5 μg/ml. Incubate at room temperature shaking for 1 hour. Wash ELISA plate 5× with wash buffer and add 25 μl of streptavidin enzyme conjugate at a final dilution of 1:8000. Incubate at room temperature shaking for 20 minutes. Wash ELISA plate 5× with wash buffer and add 25 μl of TMB substrate solution. Incubate at room temperature in the dark shaking for 20 minutes. Add 25 μl of STOP solution and read on SoftMax Pro for absorbance at 450 nm.
Exemplary compounds of Formula (I) were tested in pSLP76 assays.

Chain of HPK full length, T165E S171E (Q92918 whole entry T165E/S171E, looked up): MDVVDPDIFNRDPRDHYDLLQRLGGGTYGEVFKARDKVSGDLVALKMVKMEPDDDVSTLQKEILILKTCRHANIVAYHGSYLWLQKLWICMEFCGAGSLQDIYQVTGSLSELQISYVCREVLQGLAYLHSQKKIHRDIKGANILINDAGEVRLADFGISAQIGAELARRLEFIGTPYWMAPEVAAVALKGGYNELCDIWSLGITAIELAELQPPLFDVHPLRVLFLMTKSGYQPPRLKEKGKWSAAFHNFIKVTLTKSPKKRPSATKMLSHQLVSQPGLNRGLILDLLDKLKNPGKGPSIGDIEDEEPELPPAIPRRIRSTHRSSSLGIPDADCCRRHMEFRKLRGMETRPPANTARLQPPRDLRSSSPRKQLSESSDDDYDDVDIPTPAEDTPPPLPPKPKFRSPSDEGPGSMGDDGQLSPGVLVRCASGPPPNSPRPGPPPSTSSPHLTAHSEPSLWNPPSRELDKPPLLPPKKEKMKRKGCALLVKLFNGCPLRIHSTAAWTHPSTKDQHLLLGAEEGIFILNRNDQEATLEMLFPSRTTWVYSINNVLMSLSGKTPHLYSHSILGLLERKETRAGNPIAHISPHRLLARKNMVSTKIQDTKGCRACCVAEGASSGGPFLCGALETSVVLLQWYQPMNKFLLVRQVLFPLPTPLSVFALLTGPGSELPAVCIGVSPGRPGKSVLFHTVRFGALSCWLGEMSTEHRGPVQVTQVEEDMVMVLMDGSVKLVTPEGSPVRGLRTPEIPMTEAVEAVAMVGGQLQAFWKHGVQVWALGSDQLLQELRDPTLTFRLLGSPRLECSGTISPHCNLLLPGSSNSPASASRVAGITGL

Cc1c(-c2cc3cc(NC(=O)O[C@H]4COC[C@@H]4F)ncc3c(N)c2F)cnc2c1NCCO2 (single isomer, unassigned) [Compound 477b]
Ki [1]: 0.017 nM
% IL-2 increase relative to untreated cells ([2]; assayed concentration 5.469 μM): 1494%

Cc1c(-c2cc3cc(NC(=O)O[C@H]4CCC[C@@H]4C#N)ncc3c(N)c2F)cnc2c1NCCO2 (single isomer, unassigned) [Compound 482b]
Ki [1]: < 0.013 nM
% IL-2 increase relative to untreated cells ([2]; assayed concentration 2.778 μM): 1719%

CCc1c(-c2cc3cc(NC(=O)O[C@@H]4COC[C@H]4C)ncc3c(N)c2F)cnc2c1NCCO2.Cl (single isomer, unassigned) [Compound 555b, hydrochloride]
CLhep predicted at 1 μM [3]: 13 mL/min/kg
Ki [1]: < 0.013 nM
IC50 [4]: 24 nM

Cc1c(-c2cc3cc(NC(=O)O[C@@H]4CCC(=O)N(C)C4)ncc3c(N)c2F)cnc2c1NCCO2 [Compound 409b, (R)-1-Methyl-6-oxopiperidin-3-yl (8-amino-7-fluoro-6-(8-methyl-2,3-dihydro-1H-pyrido[2,3-b][1,4]oxazin-7-yl)isoquinolin-3-yl)carbamate]
Ki [1]: 0.048 nM
% IL-2 increase relative to untreated cells ([2]; assayed concentration 2.778 μM): 2838%

Cc1c(-c2cc3cc(NC(=O)O[C@H]4CCN(C)C4)ncc3c(N)c2F)cnc2c1NCCO2 [Compound 411a, (S)-1-Methylpyrrolidin-3-yl (8-amino-7-fluoro-6-(8-methyl-2,3-dihydro-1H-pyrido[2,3-b][1,4]oxazin-7-yl)isoquinolin-3-yl)carbamate]
Ki [1]: 0.25 nM
% IL-2 increase relative to untreated cells ([2]; assayed concentration 2.778 μM): 2119%

Cc1c(-c2cc3cc(NC(=O)O[C@@H]4CCCN(C)C4)ncc3c(N)c2F)cnc2c1NCCO2 [Compound 416a, (R)-1-Methylpiperidin-3-yl (8-amino-7-fluoro-6-(8-methyl-2,3-dihydro-1H-pyrido[2,3-b][1,4]oxazin-7-yl)isoquinolin-3-yl)carbamate]
Ki [1]: 0.075 nM
% IL-2 increase relative to untreated cells ([2]; assayed concentration 2.778 μM): 2989%

Cc1c(-c2cc3cc(NC(=O)O[C@@H]4CCN(C5COC5)C[C@H]4F)ncc3c(N)c2F)cnc2c1NCCO2 [Compound 445b, (3R,4R)-3-Fluoro-1-(oxetan-3-yl)piperidin-4-yl(8-amino-7-fluoro-6-(8-methyl-2,3-dihydro-1H-pyrido[2,3-b][1,4]oxazin-7-yl)isoquinolin-3-yl)carbamate]
% IL-2 increase relative to untreated cells ([2]; assayed concentration 2.778 μM): 1436%

Cc1c(-c2cc3cc(NC(=O)OC4CC(C)(O)C4)ncc3c(N)c2F)cnc2c1NCCO2 (centres unmarked) [Compound 486, (3-Hydroxy-3-methyl-cyclobutyl) N-[8-amino-7-fluoro-6-(8-methyl-2,3-dihydro-1H-pyrido[2,3-b][1,4]oxazin-7-yl)-3-isoquinolyl]carbamate]
Ki [1]: < 0.013 nM
% IL-2 increase relative to untreated cells ([2]; assayed concentration 2.778 μM): 1400%

CC[C@]1(O)C[C@H](OC(=O)Nc2cc3cc(-c4cnc5c(c4C)NCCO5)c(F)c(N)c3cn2)C1 [Compound 512b, (1r,3s)-3-Ethyl-3-hydroxycyclobutyl (8-amino-7-fluoro-6-(8-methyl-2,3-dihydro-1H-pyrido[2,3-b][1,4]oxazin-7-yl)isoquinolin-3-yl)carbamate hydrochloride]
Ki ([1]; hydrochloride): < 0.013 nM
% IL-2 increase relative to untreated cells ([2]; assayed concentration 2.778 μM): 2613%

Cc1c(-c2cc3cc(NC(=O)O[C@H]4C[C@@](C)(O)[C@H]4C)ncc3c(N)c2F)cnc2c1NCCO2 [Compound 526b, (1S,2S,3R)-3-Hydroxy-2,3-dimethylcyclobutyl (8-amino-7-fluoro-6-(8-methyl-2,3-dihydro-1H-pyrido[2,3-b][1,4]oxazin-7-yl)isoquinolin-3-yl)carbamate]
Ki [1]: 0.016 nM
% IL-2 increase relative to untreated cells ([2]; assayed concentration 2.778 μM): 970%

Cc1c(-c2cc3cc(NC(=O)O[C@H]4C[C@](C)(O)[C@@H]4C)ncc3c(N)c2F)cnc2c1NCCO2 [Compound 526c, (1S,2R,3S)-3-Hydroxy-2,3-dimethylcyclobutyl (8-amino-7-fluoro-6-(8-methyl-2,3-dihydro-1H-pyrido[2,3-b][1,4]oxazin-7-yl)isoquinolin-3-yl)carbamate]
Ki [1]: 0.015 nM
% IL-2 increase relative to untreated cells ([2]; assayed concentration 2.778 μM): 1677%

Cc1c(-c2cc3cc(NC(=O)O[C@H]4CC[C@@H]4C#N)ncc3c(N)c2F)cnc2c1NCCO2 [Compound 535a, (1S,2R)-2-Cyanocyclobutyl (8-amino-7-fluoro-6-(8-methyl-2,3-dihydro-1H-pyrido[2,3-b][1,4]oxazin-7-yl)isoquinolin-3-yl)carbamate]
Ki [1]: < 0.013 nM
% IL-2 increase relative to untreated cells ([2]; assayed concentration 2.778 μM): 831%

Cc1c(-c2cc3cc(NC(=O)O[C@H]4C[C@@H](CC#N)C4)ncc3c(N)c2F)cnc2c1NCCO2 [Compound 536b, (1s,3r)-3-(Cyanomethyl)cyclobutyl (8-amino-7-fluoro-6-(8-methyl-2,3-dihydro-1H-pyrido[2,3-b][1,4]oxazin-7-yl)isoquinolin-3-yl)carbamate]
% IL-2 increase relative to untreated cells ([2]; assayed concentration 8.333 μM): 2280%

Cc1c(-c2cc3cc(NC(=O)O[C@H]4C[C@H](N5CCOCC5)C4)ncc3c(N)c2F)cnc2c1NCCO2 [Compound 550a, (1r,3r)-3-Morpholinocyclobutyl (8-amino-7-fluoro-6-(8-methyl-2,3-dihydro-1H-pyrido[2,3-b][1,4]oxazin-7-yl)isoquinolin-3-yl)carbamate]
Ki [1]: < 0.013 nM
% IL-2 increase relative to untreated cells ([2]; assayed concentration 2.778 μM): 1059%

Cc1c(-c2cc3cc(NC(=O)NC4CCOCC4)ncc3c(N)c2F)cnc2c1NCCO2 [Compound 701, 1-(8-Amino-7-fluoro-6-(8-methyl-2,3-dihydro-1H-pyrido[2,3-b][1,4]oxazin-7-yl)isoquinolin-3-yl)-3-(tetrahydro-2H-pyran-4-yl)urea]
Ki [1]: < 0.013 nM
% IL-2 increase relative to untreated cells ([2]; assayed concentration 2.778 μM): 4163%

Cc1c(-c2cc3cc(NC(=O)N[C@H]4CCC[C@H]4F)ncc3c(N)c2F)cnc2c1NCCO2 [Compound 727b, 1-[8-Amino-7-fluoro-6-(8-methyl-2,3-dihydro-1H-pyrido[2,3-b][1,4]oxazin-7-yl)-3-isoquinolyl]-3-[(1S,2R)-2-fluorocyclopentyl]urea]
Ki [1]: < 0.013 nM
% IL-2 increase relative to untreated cells ([2]; assayed concentration 0.926 μM): 938%

Cc1c(-c2cc3cc(NC(=O)N4CCC4)ncc3c(N)c2F)cnc2c1NCCO2 [Compound 756, N-(8-Amino-7-fluoro-6-(8-methyl-2,3-dihydro-1H-pyrido[2,3-b][1,4]oxazin-7-yl)isoquinolin-3-yl)azetidine-1-carboxamide]
Ki [1]: 0.02 nM
